Results reported in patent publication US12109202B2, “Fixed dose combination of cholinesterase inhibitor and a quaternary ammonium antimuscarinic agent to treat neurodegenerative cognitive disorders” (priority 2021, dated 2024).

What was measured:
[1] = Phase 1 trial, rivastigmine and glycopyrrolate administrations: rivastigmine blood serum concentration time profile (FIG. 2A)
Excerpt: The serum rivastigmine levels were obtained over the course of twelve hours post-administration.

[2] = Phase 1 trial, rivastigmine and trospium administrations: rivastigmine blood serum concentration time profile (FIG. 2B); conditions: 6 mg rivastigmine fed state one hour after 20 mg trospium fasting (subject 1008) versus simultaneous fasting (1001, 1002, 1005)
Method: Patients 1001, 1002, and 1005 were administered trospium and rivastigmine simultaneously in a fasting state. Subject 1008 was administered trospium and rivastigmine in fasting and fed states, respectively.

SMILES: CCN(C)C(=O)Oc1cccc([C@H](C)N(C)C)c1 [rivastigmine]
- rivastigmine blood serum concentration (time profile) ([1]; patient 1006, co-formulated drug delivery element with glycopyrrolate taken in a fasting state, 12 hours post dose): 10 ng/mL
- adverse effects, separate versus simultaneous administration ([1]; patients 1010 and 1011, glycopyrrolate fasted, rivastigmine with food one hour later): reduced adverse effects, particularly nausea
- peak rivastigmine serum concentration, separate versus simultaneous administration ([1]; patients 1010 and 1011, glycopyrrolate fasted, rivastigmine with food one hour later, compared with patients 1003, 1004 coadministered fasted): delayed peak serum concentration associated with lower peak rivastigmine levels
- peak rivastigmine blood serum level, taken with food [2]: attenuated peak rivastigmine levels
